Data: patent publication US8404672B2, “Substituted heterocyclic compounds” (Bristol-Meyers Squibb Company, priority 2009, dated 2013)

What was measured:
circulating lymphocytes = assay: Blood Lymphocyte Reduction Assay (BLR) in rats; assay type: in vivo; details: Lewis rats, oral, vs vehicle group
Method: Blood Lymphocyte Reduction Assay (BLR) in Rodents
Lewis rats or BALB/c mice were dosed orally with test article (as a solution or suspension in the vehicle) or vehicle alone (polyethylene glycol 300, “PEG300”). Blood was drawn at 4 hr and 24 h by retro-orbital bleeding. Blood lymphocyte counts were determined on an ADVIA® 120 Hematology Analyzer (Siemens Healthcare Diagnostics). The results were measured as a reduction in the percentage of circulating lymphocytes as compared to the vehicle treated group at the 4 hr and 24 hr measurement. The results represent the average results of all animals within each treatment group (n=3-4).
A compound of the present invention was tested in the Blood Lymphocyte Reduction assay (BLR) described hereinabove and the results are shown in Table D for rats and Table E for mice.

[1] = biological target: T1, S1P1 (membranes from S1P1 transfected CHO cells) (Homo sapiens, UniProt P21453); assay: Method B: Receptor [35S] GTPγS SPA Binding Assay, S1P1; assay type: biochemical
T1 construct: expressed in transfected cells; host or cells: CHO cells
T1 sequence (P21453 whole entry): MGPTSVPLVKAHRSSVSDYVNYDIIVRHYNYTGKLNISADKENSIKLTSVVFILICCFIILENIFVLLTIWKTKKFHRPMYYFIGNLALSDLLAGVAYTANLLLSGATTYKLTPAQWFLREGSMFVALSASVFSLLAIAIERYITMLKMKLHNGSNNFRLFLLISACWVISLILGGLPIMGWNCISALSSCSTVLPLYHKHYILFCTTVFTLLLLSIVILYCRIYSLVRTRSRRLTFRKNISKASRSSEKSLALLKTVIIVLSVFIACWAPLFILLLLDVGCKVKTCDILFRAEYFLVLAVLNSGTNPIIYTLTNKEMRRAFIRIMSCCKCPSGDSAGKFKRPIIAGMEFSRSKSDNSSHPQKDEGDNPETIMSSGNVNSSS
Method: Method B: Receptor [35S] GTPγS SPA Binding Assays
Membranes prepared from S1P1 or S1P3 transfected CHO cells ([…]) were incubated in 96-well white plates (CORNING® 3693) with test compounds diluted in DMSO, in 50 μl of reaction mixture containing 7.5 μl WGA-PVT beads (20 mg/ml), and 5 μM GDP, 20 mM HEPES pH 7.4, 100 mM NaCl, 1 mM EDTA, 5 mM MgCl2, 10 μg/ml saponin, 0.1% BSA, and 1 μM leupeptin. The assay was initiated with the addition of […] of 0.2 nM [^35S]-GTPγS (1250 Ci/mmol; NEN) in assay buffer. After 90 min incubation at room temperature, spin the plate at 1000 rpm for 5 min. The bound radionuclides were measured at TOPCOUNT®, expressed as % response relative to S1P (1 μM) activation. Data was analyzed using the four parameter logistic equation in Excel. The four parameters in the equation, Y=A+((B−A)/(1+((EC50/X)^D))), are described as following: A is the Y value (agonist activity) at the bottom plateau; B is the Y value at the top plateau; EC50 is the X value (agonist concentration) when the response is halfway between bottom and top; D is Hill coefficient. Curves were not generated for compounds having Ymax values were below 50%.
(§1) Compounds of the present invention and Comparative Compound A were tested in the Receptor [35S] GTPγS Binding Assays (Method A) and Receptor [35S] In some instances, the value is an average of multiple experiments where N is the number of experiments conducted that provided satisfactory dose response curves. When more than one batch of an example was tested, the value presented is from a batch which allowed a comparison of GTPγS S1P1 and GTPγS S1P3 in which the most number of experiments were performed. Preferably, the same batch was examined in Method A and Method B. Data was not averaged across different batches of an example compound.

[2] = biological target: T2, S1P1 (membranes from S1P1/CHO cells) (Homo sapiens, UniProt P21453); assay: Method A: Receptor [35S] GTPγS Binding Assay, S1P1; assay type: biochemical; details: Method A; S1P1/CHO membranes
T2 construct: expressed in transfected cells; host or cells: S1P1/CHO cells
T2 sequence (P21453 whole entry): as above
Method: Method A: Receptor [35S] GTPγS Binding Assays
Compounds were loaded in a 384 Falcon v-bottom plate (0.5 μl/well in a 3-fold dilution). Membranes prepared from S1P1/CHO cells or EDG3-Gal5-bla HEK293T cells were added to the compound plate (40 μl/well, final protein 3 μg/well) with MULTIDROP®. [^35S]GTP (1250 Ci/mmol, Perkin Elmer) was diluted in assay buffer: 20 mM HEPES, pH 7.5, 10 mM MgCl2, 150 mM NaCl, 1 mM EGTA, 1 mM DTT, 10 μM GDP, 0.1% fatty acid free BSA, and 10 μg/ml Saponin to 0.4 nM. 40 μl of the [^35S] GTP solution was added to the compound plate with a final concentration of 0.2 nM. The reaction was kept at room temperature for 45 min. At the end of incubation, all the mixtures in the compound plate were transferred to a 384 well FB filter plates via GPCR robot system. The filter plate was washed with water 4 times by using the modified manifold Embla plate washer and dried at 60° C. for 45 min. 30 μA of MicroScint 20 scintillation fluid was added to each well for counting at Packard TOPCOUNT®. EC50 is defined as the agonist concentration that corresponds to 50% of the Ymax (maximal response) obtained for each individual compound tested.
as §1

EC50 ([1]; Method B SPA, S1P1 transfected CHO membranes): 0.17 nM
GTPγS S1P3/S1P1 (Method B) ([1]; ratio of GTPγS S1P3 EC50 to GTPγS S1P1 EC50, Method B): 37,000
EC50 [2]: 1.4 nM
SMILES: O=C(O)C1CN(Cc2ccc(-c3noc(-c4onc(-c5ccccn5)c4C(F)(F)F)n3)cc2)C1 [Example 1, 1-(4-(5-(3-(Pyridin-2-yl)-4-(trifluoromethyl)isoxazol-5-yl)-1,2,4-oxadiazol-3-yl)benzyl)azetidine-3-carboxylic acid]
% reduction in lymphocytes at 4 hr. (circulating lymphocytes; 0.3 mg/kg): 82%
% reduction in lymphocytes at 24 hr. (circulating lymphocytes; 0.3 mg/kg): 48%
% reduction in lymphocytes at 4 hr. (circulating lymphocytes; 1.0 mg/kg): 85%
% reduction in lymphocytes at 24 hr. (circulating lymphocytes; 1.0 mg/kg): 80%
